The source of these data is US20240287070A1, “FUSED HETEROCYCLIC DERIVATIVES” (Janssen Sciences Ireland Unlimited Company, priority 2021, published 2024).

Broadly, the CC50 is the concentration giving 50% cytotoxicity. Read a high CC50 as lower toxicity to the cells. Usually EC50 stands for the concentration that produces a half-maximal response. A higher EC50 goes with lower potency in that assay.

Data set [1] is described as follows: Cytotoxicity, ATPlite Luminescence Assay. In kind it is cell-based, human. The settings on record: human, HepG2 or HepG2.117 cells, 3-days incubation unless marked with *. As to the method:
Cytotoxicity of the compounds was tested using HepG2 or HepG2.117 cells, incubated for 3 or 4 days in the presence of compounds. The viability of the cells was assessed using the PERKIN ELMER ATPlite Luminescence Assay System.”

Data set [2] can be described thus: Human liver microsome stability. The format is in vitro ADME. The settings on record: 1 μM compound, NADPH 1 mM, 37° C., 0-60 min; for half-life at 1 μM: human, pooled human liver microsomes, pH 7.4, pooled human liver microsomes 0.5 mg/mL, read-out: HLM Metabolism t1/2; for HLM Metabolism t1/2: pooled human liver microsomes 0.5 mg/mL. As to the method: Human Liver Microsome Stability t½ (Min) of Compounds of Formula (I) […] All incubations are performed singularly for each compound. NADPH was added to initiate the reaction with the final concentration of 1 mM and the final incubation volume of 400 μL. At 6 time points (0, 5, 10, 20, 40 and 60 min) reactions were stopped by the removal of 50 μL of the incubation mixture into plates containing acetonitrile at a of 1:3 (v:v). The plates were centrifuged at 3000 rpm for 10 min at 4° C. to precipitate the protein. Following protein precipitation, the sample supernatants were combined in cassettes of up to 8 compounds. The internal standard was added (1:1 supernatant to internal standard solution) and samples were analyzed using standard LC-MS conditions. From a plot of ln peak area ratio (compound peak area/internal standard peak area) against time, the gradient of the line is determined. Subsequently, half-life is calculated using the equations below: Elimination rate constant (k)=(−gradient) […]
On the technique in general: Liver microsomes are vesicles of endoplasmic reticulum, rich in cytochrome P450 enzymes.

Data set [3] relates to HBV (HepG2.117 cell line, inducibly HBV producing). As to the kind of experiment: Anti-HBV activity, intracellular HBV DNA by real-time PCR in HepG2.117 cell line. The format is cell-based, hepatitis B virus. The settings on record: HepG2.117 cells, 3 days of treatment. As to the method: The anti HBV activity was measured using the HepG2.117 cell line, a stable, inducibly HBV producing cell line, which replicates HBV in the absence of doxycycline (Tet-off system). The HepG2 cell line is available from ATCCR under number HB-8065. Transfection of the HepG2 cell line can be as described in Sun and Nassal 2006 Journal of Hepatology 45 (2006) 636-645 “Stable HepG2- and Huh7-based human hepatoma cell lines for efficient regulated expression of infectious hepatitis B virus”.
For the antiviral assay, HBV replication was induced, followed by a treatment with serially diluted compound in 96-well plates. After 3 days of treatment, the antiviral activity was determined by quantification of intracellular HBV DNA using real-time PCR and an HBV specific primer set and probe.
A general note: In qPCR the cycle at which signal appears reflects the starting amount.

Setting [4] is: Hepatitis B virus, HepG2.117, 72 h.

In data set [1], `CC(c1ccc(S(C)(=O)=O)cc1)N1C[C@@H](C)n2nc3c(c2C1=O)CN(C(=O)c1ccc(Cl)c(Cl)c1)[C@H](C)C3` (single isomer, unassigned) [Compound 15A, (3R,7R)-2-(3,4-dichlorobenzoyl)-3,7-dimethyl-9-((R*)-1-(4-(methylsulfonyl)phenyl)ethyl)-1,2,3,4,8,9-hexahydropyrido[4′,3′:3,4]pyrazolo[1,5-a]pyrazin-10(7H)-one] came in with a CC50 at 3 days of over 50 µM. For the same compound, the half-life at 1 μM in data set [2] was over 3 h. The same compound returned an EC50 in data set [3] of 0.063 µM.
Take `CC(c1ccc(S(N)(=O)=O)cc1)N1C[C@@H](C)n2nc3c(c2C1=O)CN(C(=O)c1ccc(Cl)c(Cl)c1)[C@H](C)C3` (single isomer, unassigned) [Compound 16A, 4-((R*)-1-((3R,7R)-2-(3,4-dichlorobenzoyl)-3,7-dimethyl-10-oxo-1,2,3,4,7,8-hexahydropyrido[4′,3′:3,4]pyrazolo[1,5-a]pyrazin-9(10H)-yl)ethyl)benzenesulfonamide]: the CC50 at 3 days in data set [1] is over 50 µM. For the same compound, the half-life at 1 μM in data set [2] is over 3 h. The EC50 in data set [3] (setting [4]) worked out at 0.061 µM.
In the case of `CNS(=O)(=O)c1ccc(C(C)N2C[C@@H](C)n3nc4c(c3C2=O)CN(C(=O)c2ccc(Cl)c(Cl)c2)[C@H](C)C4)cc1` (single isomer, unassigned) [Compound 17A, 4-((R*)-1-((3R,7R)-2-(3,4-dichlorobenzoyl)-3,7-dimethyl-10-oxo-1,3,4,7,8,10-hexahydropyrido[4′,3′:3,4]pyrazolo[1,5-a]pyrazin-9(2H)-yl)ethyl)-N-methylbenzenesulfonamide], the CC50 at 3 days in data set [1] is over 50 µM. The half-life at 1 μM in data set [2] is 2.9 h. The EC50 in data set [3] worked out at 0.077 µM.
In data set [1], `CC(c1ccc(-c2ccn(C)n2)cc1)N1C[C@@H](C)n2nc3c(c2C1=O)CN(C(=O)c1ccc(Cl)c(C#N)c1)[C@H](C)C3` (single isomer, unassigned) [Compound 21A, 2-Chloro-5-((3R,7R)-3,7-dimethyl-9-((R*)-1-(4-(1-methyl-1H-pyrazol-3-yl)phenyl)ethyl)-10-oxo-1,2,3,4,7,8,9,10-octahydropyrido[4′,3′:3,4]pyrazolo[1,5-a]pyrazine-2-carbonyl)benzonitrile] showed a CC50 at 3 days of over 50 µM. In addition, the “HLM Metabolism t1/2” value in data set [2] was found to be 0.98 h. The same compound displayed a concentration for a half-maximal effect (EC50) in data set [3] of 0.035 µM.
As to `Cc1nnn(-c2ccc(C(C)N3C[C@@H](C)n4nc5c(c4C3=O)CN(C(=O)c3ccc(Cl)c(Cl)c3)[C@H](C)C5)cc2)n1` (single isomer, unassigned) [Compound 22A, (3R,7R)-2-(3,4-dichlorobenzoyl)-3,7-dimethyl-9-((R*)-1-(4-(5-methyl-2H-tetrazol-2-yl)phenyl)ethyl)-1,2,3,4,8,9-hexahydropyrido[4′,3′:3,4]pyrazolo[1,5-a]pyrazin-10(7H)-one], in data set [1], the CC50 at 3 days is over 50 µM. For the same compound, the half-life at 1 μM in data set [2] was 1.35 h. In addition, the concentration giving a half-maximal response (EC50) in data set [3] (setting [4]) was 0.034 µM.
`CNC(=O)C(c1ccc(OC(F)F)cc1)N1C[C@@H](C)n2nc3c(c2C1=O)CN(C(=O)c1ccc(Cl)c(Cl)c1)[C@H](C)C3` (single isomer, unassigned) [Compound 23A, (R*)-2-((3R,7R)-2-(3,4-dichlorobenzoyl)-3,7-dimethyl-10-oxo-1,3,4,7,8,10-hexahydropyrido[4′,3′:3,4]pyrazolo[1,5-a]pyrazin-9(2H)-yl)-2-(4-(difluoromethoxy)phenyl)-N-methylacetamide]: the midpoint of cytotoxicity in data set [1], the CC50 at 3 days, lay at 32.1 µM. Also, the half-life at 1 μM in data set [2] came out at 1.88 h. The same compound gave an EC50 in data set [3] of 0.066 µM.
Regarding `CNC(=O)c1ccc(C(C)N2C[C@@H](C)n3nc4c(c3C2=O)CN(C(=O)c2ccc(Cl)c(Cl)c2)[C@H](C)C4)cn1` (single isomer, unassigned) [Compound 24A, 5-((R*)-1-((3R,7R)-2-(3,4-dichlorobenzoyl)-3,7-dimethyl-10-oxo-1,3,4,7,8,10-hexahydropyrido[4′,3′:3,4]pyrazolo[1,5-a]pyrazin-9(2H)-yl)ethyl)-N-methylpicolinamide], in data set [1], the CC50 at 3 days was over 50 µM. Besides, in data set [2], the half-life at 1 μM is over 3 h. In data set [3] (setting [4]), this compound yielded an EC50 of 0.038 µM.
In the case of `Cc1nnn(-c2ccc(C(C)N3C[C@@H](C)n4nc5c(c4C3=O)CN(C(=O)c3ccc(Cl)c(Cl)c3)[C@H](C)C5)cn2)n1` (single isomer, unassigned) [Compound 26A, (3R,7R)-2-(3,4-dichlorobenzoyl)-3,7-dimethyl-9-((R*)-1-(6-(5-methyl-2H-tetrazol-2-yl)pyridin-3-yl)ethyl)-1,2,3,4,8,9-hexahydropyrido[4′,3′:3,4]pyrazolo[1,5-a]pyrazin-10(7H)-one], the CC50 at 3 days in data set [1] is over 50 µM. Moreover, the half-life at 1 μM in data set [2] worked out at 1.38 h. In data set [3], this compound had an EC50 of 0.14 µM.
With `Cc1nnnn1-c1ccc(C(C)N2C[C@@H](C)n3nc4c(c3C2=O)CN(C(=O)c2ccc(Cl)c(Cl)c2)[C@H](C)C4)cn1` (single isomer, unassigned) [Compound 27A, (3R,7R)-2-(3,4-dichlorobenzoyl)-3,7-dimethyl-9-((R*)-1-(6-(5-methyl-1H-tetrazol-1-yl)pyridin-3-yl)ethyl)-1,2,3,4,8,9-hexahydropyrido[4′,3′:3,4]pyrazolo[1,5-a]pyrazin-10(7H)-one], in data set [1], the CC50 at 3 days is over 50 µM. In data set [2], the “HLM Metabolism t1/2” value is over 3 h. In data set [3], this compound registered an EC50 of 0.24 µM.
In data set [1], `CC(c1ccc(N2CCCS2(=O)=O)nc1)N1C[C@@H](C)n2nc3c(c2C1=O)CN(C(=O)c1ccc(Cl)c(C(F)(F)F)c1)[C@H](C)C3` (single isomer, unassigned) [Compound 28A, (3R,7R)-2-(4-chloro-3-(trifluoromethyl)benzoyl)-9-((R*)-1-(6-(1,1-dioxidoisothiazolidin-2-yl)pyridin-3-yl)ethyl)-3,7-dimethyl-1,2,3,4,8,9-hexahydropyrido[4′,3′: 3,4]pyrazolo[1,5-a]pyrazin-10(7H)-one] came in with a CC50 at 3 days of over 50 µM. Also, the “HLM Metabolism t1/2” value in data set [2] is 0.835 h. For the same compound, in data set [3] (setting [4]), the 50% effective concentration (EC50) amounted to 0.012 µM.
The compound `CC(c1ccnc(Cl)c1)N1C[C@@H](C)n2nc3c(c2C1=O)CN(C(=O)c1ccc(Cl)c(Cl)c1)[C@H](C)C3` (single isomer, unassigned) [Compound 31A, (3R,7R)-9-((R*)-1-(2-chloropyridin-4-yl)ethyl)-2-(3,4-dichlorobenzoyl)-3,7-dimethyl-1,2,3,4,8,9-hexahydropyrido[4′,3′:3,4]pyrazolo[1,5-a]pyrazin-10(7H)-one] registered a CC50 at 3 days in data set [1] of 31.5 µM. Besides, the half-life at 1 μM in data set [2] was found to be 1.9 h. Also, the response in data set [3] was half-maximal at 0.051 µM (EC50).
Taken in the same sequence, the figures for `CC(c1cc(F)ccn1)N1C[C@@H](C)n2nc3c(c2C1=O)CN(C(=O)c1ccc(Cl)c(Cl)c1)[C@H](C)C3` (single isomer, unassigned) [Compound 32A] were over 50 µM, 1.68 h and 0.016 µM.
In turn, `CC(c1ccc(NS(C)(=O)=O)cn1)N1C[C@@H](C)n2nc3c(c2C1=O)CN(C(=O)c1ccc(Cl)c(C(F)(F)F)c1)[C@H](C)C3` (single isomer, unassigned) [Compound 33A, N-(6-((R*)-1-((3R,7R)-2-(4-chloro-3-(trifluoromethyl)benzoyl)-3,7-dimethyl-10-oxo-1,3,4,7,8,10-hexahydropyrido[4′,3′:3,4]pyrazolo[1,5-a]pyrazin-9(2H)-yl)ethyl)pyridin-3-yl)methanesulfonamide] showed a CC50 at 3 days in data set [1] of over 50 µM. Further, the half-life at 1 μM in data set [2] is over 3 h. Besides, the concentration for a half-maximal effect (EC50) in data set [3] (setting [4]) stood at 0.036 µM.
